{"source": "patent US20140242012A1", "about": "“METHODS FOR TREATING UV-DAMAGED SKIN AND SCC TUMORS AND FOR REMOVING TATTOOS WITH TOPICAL INGENOL MEBUTATE” (LEO Laboratories Limited, priority 2011, published 2014)", "key": {"T7 cells": {"tested_on": "T7 cells", "assay": "In vitro cytotoxicity assay (SRB)", "type": "cell-based, murine", "conditions": "48 h, DMSO", "experimental": "(§1) UV-13.1 and T7 cells are cultured in DMEM medium (Gibco Catalogue number 11960) supplemented with sodium-pyruvate (Gibco Catalogue number 11360-070, final concentration 1 mM), L-glutamine (Gibco, catalogue number 25030-081, final concentration 2 mM) and penicillin/streptomycin (Catalogue number 490269, diluted 1:100). B 16 cells are cultured in RPMI (QIMR) supplemented with 10% FBS and penicillin/streptomycin.\n(§2) Cells are seeded with in 10,000 per microtitre wells in 100 μl of culture medium and incubated overnight to enable them to adhere to the bottom of the well. Quadruplicate wells aere treated with ingenol mebutate (PEP005 #250803 final concentration 0.232-232 μM) dissolved in DMSO (Sigma, D2650). […] Included in the assay were cells treated with vehicle alone (1% DMSO) and control. The treated cells are incubated at 37° C. for 48 h. Medium from the microtitre plates is tipped out; the wells are washed once with PBS to remove any excess FBS and then are fixed with methylated spirits for a minimum of 5 min. The methylated spirit is tipped off and the wells are washed once with tap water. A volume of 50 μl of sulforhodmain B (SRB) solution (0.4% SRB in 1% acetic acid) is added to each well and the plates are incubated at room temperature for a minimum of 15 min. The SRB solution is tipped off and the plates are washed twice with tap water and then twice with 1% acetic acid. The final wash of acetic acid is tapped out of the plate and 100 μl of 10 mM Tris base (unbuffered, pH>9) is added per well. The plate is incubated at room temperature for at least 5 min and then the absorbance is read on an ELISA plate reader at 564 nm.\n(§3) To determine the in vitro sensitivity profile of T7 cells to ingenol mebutate treatment, a dose-response is generated by using the SRB stain to monitor cellular protein. Cells are seeded at high density and treated with ingenol mebutate (0.232-232 μM) for 48 h. The plates are fixed and are stained with SRB. […]\n(§4) Cells are treated with 0.232-232 μM of ingenol mebutate. […] After 2 days, total protein is determined using SRB staining. […]"}, "B16": {"tested_on": "B16", "assay": "In vitro cytotoxicity assay (SRB)", "type": "cell-based, murine", "conditions": "48 h, DMSO", "experimental": "as §1, §2, §3, §4"}, "UV-13.1": {"tested_on": "UV-13.1", "assay": "In vitro cytotoxicity assay (SRB)", "type": "cell-based, murine", "conditions": "48 h, DMSO", "experimental": "as §1, §2, §3, §4"}, "T7 tumours": {"tested_on": "T7 tumours", "assay": "Challenge of ingenol mebutate cured mice with T7 cells", "type": "in vivo, SKH1/hr mice", "conditions": "challenge 110 or 159 days after cure with 0.25% topical", "experimental": "To determine if cure of primary T7 tumours in inbred SKH1/hr mice would protect mice from subsequent challenge with the same tumour, T7 cells were injected s.c. in female SKH1/hr mice that had primary T7 tumours previously cured by topical treatment with 0.25% ingenol mebutate. There were 2 groups of mice, mice that had primary tumours cured by ingenol mebutate 110 (group 1) and 159 (group 2) days prior to challenge. Included in the study was a control group that had not previously received T7 or ingenol mebutate treatment. Tumour growth is monitored over time. Mice are culled when tumours reached 100 mm^2.\nMice are inoculated s.c. with 2×10^4 T7 cells 110 (Day 110) or 159 (Day 159) days post last treatment of primary tumour with ingenol mebutate. Tumour growth is monitored over time. Mice are sacrificed when tumour reached 100 mm^2. Survival curves are generated by assigning a death event when tumours reached 100 mm^2. Control mice had neither prior T7 nor ingenol mebutate treatment."}}, "data": [{"smiles": "C/C=C(/C)C(=O)O[C@H]1C(C)=C[C@]23C(=O)[C@@H](C=C(CO)[C@@H](O)[C@]12O)[C@H]1[C@@H](C[C@H]3C)C1(C)C", "note": "[ingenol mebutate]", "values": [{"measurement": "90% lethal dose (LD90)", "setting": "T7 cells", "value": "100 to 110", "unit": "µM"}, {"measurement": "90% lethal dose (LD90)", "setting": "B16", "value": "100 to 110", "unit": "µM"}, {"measurement": "90% lethal dose (LD90)", "setting": "UV-13.1", "value": "100 to 110", "unit": "µM"}, {"measurement": "protection against subsequent T7 challenge", "setting": "T7 tumours", "value": "no protective effect"}]}]}
